Reference: US9278962B2 (Cytokinetics, Inc., priority 2011, dated 2016)

Tested on: rabbit skeletal myofibrils (approximately 90% fast fibers)
Assay: Activation of fast skeletal myofibrils (PUMA coupled-enzyme ATPase assay, AC1.4)
Type: biochemical
Conditions: concentration at which the compound increased enzymatic activity by 40%, calcium at pCa25

SMILES	Mean AC1.4 (Table 2)	further results
CN(C)Cc1nsc(NCC(C)(C)c2ccc(F)cc2)n1 [[(5-{[2-(4-fluorophenyl)-2-methylpropyl]amino}(1,2,4-thiadiazol-3-yl))methyl]dimethylamine]	D (D=>20 uM)	
COc1cccc(Cc2nsc(NCCc3cc(F)cc(F)c3)n2)c1 [[2-(3,5-difluorophenyl)ethyl]{3-[(3-methoxyphenyl)methyl](1,2,4-thiadiazol-5-yl)}amine]	D (D=>20 uM)	
Cc1ccc(Cc2nsc(NCCc3ccc(Cl)cc3)n2)cc1 [[2-(4-chlorophenyl)ethyl]{3-[(4-methylphenyl)methyl](1,2,4-thiadiazol-5-yl)}amine]	C (C=10-20 uM)	
N#Cc1cccc(-c2nsc(NCC(=O)C3CCCCN3)n2)c1 (centres unmarked) [3-{5-[(2-oxo-2-piperidylethyl)amino]-1,2,4-thiadiazol-3-yl}benzenecarbonitrile]	D (D=>20 uM)	
N#Cc1ccc(F)c(-c2nnc(NC3(c4ncccc4F)CCC3)[nH]2)c1 [4-fluoro-3-(5-(1-(3-fluoropyridin-2-yl)cyclobutylamino)-4H-1,2,4-triazol-3-yl)benzonitrile]		Mean AC1.4 (Table 5): D (D=>20 uM)
CC(C)CCNc1nc(Cc2ccc(F)cc2)ns1 [{3-[(4-fluorophenyl)methyl](1,2,4-thiadiazol-5-yl)}(3-methylbutyl)amine]	D (D=>20 uM)	
Cc1ccc(C(N)=O)cc1-c1nnc(NC[C@]2(c3ncccc3F)C[C@H](F)C2)s1 [3-(5-((3-fluoro-1-(3-fluoropyridin-2-yl)cyclobutyl)methylamino)-1,3,4-thiadiazol-2-yl)-4-methylbenzamide]		Mean AC1.4 (Table 3): A (A=<1 uM)
COC(=O)NCc1nsc(NCC(C)(C)c2ccc(F)cc2)n1 [N-[(5-{[2-(4-fluorophenyl)-2-methylpropyl]amino}(1,2,4-thiadiazol-3-yl))methyl]methoxycarboxamide]	B (B=1-10 uM)	
CC(C)(C)OC(=O)N1CCN(Cc2nsc(NCC(C)(C)c3ccc(F)cc3)n2)CC1 [tert-butyl 4-[(5-{[2-(4-fluorophenyl)-2-methylpropyl]amino}-1,2,4-thiadiazol-3-yl)methyl]piperazinecarboxylate]	D (D=>20 uM)	
CC(C)(CNc1nc(CCN2CCCC(O)C2)ns1)c1ccc(F)cc1 (centres unmarked) [1-[2-(5-{[2-(4-fluorophenyl)-2-methylpropyl]amino}-1,2,4-thiadiazol-3-yl)ethyl]piperidin-3-ol]	C (C=10-20 uM)	
COc1ccc(Cc2nsc(NCC(C)(C)c3ccc(F)cc3)n2)cc1 [[2-(4-fluorophenyl)-2-methylpropyl]{3-[(4-methoxyphenyl)methyl](1,2,4-thiadiazol-5-yl)}amine]	A (A=<1 uM)	
CSc1ncc(C)c(-c2nnc(NC[C@]3(c4ncccc4F)C[C@H](F)C3)s2)n1 [N-((3-fluoro-1-(3-fluoropyridin-2-yl)cyclobutyl)methyl)-5-(5-methyl-2-(methylthio)pyrimidin-4-yl)-1,3,4-thiadiazol-2-amine]		Mean AC1.4 (Table 3): B (B=1-10 uM)
Clc1ccc(CNc2nc(Cc3ccc(Cl)cc3)ns2)cc1 [[(4-chlorophenyl)methyl]{3-[(4-chlorophenyl)methyl](1,2,4-thiadiazol-5-yl)}amine]	D (D=>20 uM)	
CC(C)(CNc1nc(CN2CCN(S(C)(=O)=O)CC2)ns1)c1ccc(F)cc1 [1-[(5-{[2-(4-fluorophenyl)-2-methylpropyl]amino}(1,2,4-thiadiazol-3-yl))methyl]-4-(methylsulfonyl)piperazine]	C (C=10-20 uM)	
C[C@H](CNc1nc(-c2cncc(C(N)=O)c2)ns1)c1ccc(F)cc1 [5-(5-{[(2S)-2-(4-fluorophenyl)propyl]amino}-1,2,4-thiadiazol-3-yl)pyridine-3-carboxamide]	B (B=1-10 uM)	
CN(C)C(=O)c1cccc(-c2nsc(NCC(C)(C)c3ccc(F)cc3)n2)c1 [[3-(5-{[2-(4-fluorophenyl)-2-methylpropyl]amino}(1,2,4-thiadiazol-3-yl))phenyl]-N,N-dimethylcarboxamide]	B (B=1-10 uM)	
CC(C)(CNc1nc(CNCCCO)ns1)c1ccc(F)cc1 [3-{[(5-{[2-(4-fluorophenyl)-2-methylpropyl]amino}-1,2,4-thiadiazol-3-yl)methyl]amino}propan-1-ol]	D (D=>20 uM)	
NC(=O)c1cccc(-c2nsc(NCC(O)c3ccc(F)cc3)n2)c1 (centres unmarked) [3-(5-{[2-(4-fluorophenyl)-2-hydroxyethyl]amino}-1,2,4-thiadiazol-3-yl)benzamide]	D (D=>20 uM)	
COc1cccc(Cc2nsc(Nc3ccc(Cl)cc3)n2)c1 [(4-chlorophenyl){3-[(3-methoxyphenyl)methyl](1,2,4-thiadiazol-5-yl)}amine]	D (D=>20 uM)	
Cc1ccc(-c2nnc(NCC3(c4ncccc4F)CCC3)s2)cc1 [N-((1-(3-fluoropyridin-2-yl)cyclobutyl)methyl)-5-p-tolyl-1,3,4-thiadiazol-2-amine]		Mean AC1.4 (Table 3): B (B=1-10 uM)
Cn1nc(NC2(c3ncccc3F)CCC2)nc1-c1cc(C(N)=O)ccc1F [4-fluoro-3-(5-(1-(3-fluoropyridin-2-yl)cyclobutylamino)-2-methyl-2H-1,2,4-triazol-3-yl)benzamide]		Mean AC1.4 (Table 5): D (D=>20 uM)

SMILES	Mean AC1.4 (Table 2)	further results
Oc1cccc(Cc2nsc(NCc3ccc(Cl)c(Cl)c3)n2)c1 [3-[(5-{[(3,4-dichlorophenyl)methyl]amino}-1,2,4-thiadiazol-3-yl)methyl]phenol]	D (D=>20 uM)	
N#Cc1cc(C(N)=O)cc2sc(NCC3(c4ncccc4F)CCC3)nc12 [4-cyano-2-((1-(3-fluoropyridin-2-yl)cyclobutyl)methylamino)benzo[d] thiazole-6-carboxamide]		Mean AC1.4 (Table 4): A (A=<1 uM)
CC(=O)OCC(=O)NCCCc1nsc(NCC(C)(C)c2ccc(F)cc2)n1 [{N-[3-(5-{[2-(4-fluorophenyl)-2-methylpropyl]amino}-1,2,4-thiadiazol-3-yl)propyl]carbamoyl}methyl acetate]	C (C=10-20 uM)	
CN1CCN(CCc2nsc(NCC(C)(C)c3ccc(F)cc3)n2)CC1 [[2-(4-fluorophenyl)-2-methylpropyl]{3-[2-(4-methylpiperazinyl)ethyl](1,2,4-thiadiazol-5-yl)}amine]	C (C=10-20 uM)	
COC/C=C/c1nsc(NCC(C)(C)c2ccc(F)cc2)n1 [[3-((1E)-3-methoxyprop-1-enyl)(1,2,4-thiadiazol-5-yl)][2-(4-fluorophenyl)-2-methylpropyl]amine]	B (B=1-10 uM)	
CC(C)(CNc1nc(CN2CCCCC2)ns1)c1ccc(F)cc1 [[2-(4-fluorophenyl)-2-methylpropyl][3-(piperidylmethyl)(1,2,4-thiadiazol-5-yl)]amine]	D (D=>20 uM)	
COc1cccc(Cc2nsc(NCCc3ccc(Cl)cc3Cl)n2)c1 [[2-(2,4-dichlorophenyl)ethyl]{3-[(3-methoxyphenyl)methyl](1,2,4-thiadiazol-5-yl)}amine]	C (C=10-20 uM)	
CNCc1nsc(NCC(C)(C)c2ccc(F)cc2)n1 [[(5-{[2-(4-fluorophenyl)-2-methylpropyl]amino}(1,2,4-thiadiazol-3-yl))methyl]methylamine]	D (D=>20 uM)	
Cc1cc(C(N)=O)sc1-c1nnc(NC[C@]2(c3ncccc3F)C[C@H](F)C2)s1 [5-(5-((3-fluoro-1-(3-fluoropyridin-2-yl)cyclobutyl)methylamino)-1,3,4-thiadiazol-2-yl)-4-methylthiophene-2-carboxamide]		Mean AC1.4 (Table 3): B (B=1-10 uM)
CC(C)(CNc1nc2c(Cl)cc(C(N)=O)cc2s1)c1ccc(F)cc1 [4-chloro-2-(2-(4-fluorophenyl)-2-methylpropylamino)benzo[d] thiazole-6-carboxamide]		Mean AC1.4 (Table 4): A (A=<1 uM)
Oc1ccc(CCNc2nc(Cc3ccc(F)cc3)ns2)cc1 [4-[2-({3-[(4-fluorophenyl)methyl]-1,2,4-thiadiazol-5-yl}amino)ethyl]phenol]	D (D=>20 uM)	
N#Cc1cccc(-c2nnc(NC[C@]3(c4ncccc4F)C[C@H](F)C3)s2)c1 [3-(5-(((trans)3-fluoro-1-(3-fluoropyridin-2-yl)cyclobutyl)methylamino)-1,3,4-thiadiazol-2-yl)benzonitrile]		Mean AC1.4 (Table 3): B (B=1-10 uM)
Cc1ccccc1-c1nnc(NCC2(c3ncccc3F)CCC2)s1 [N-((1-(3-fluoropyridin-2-yl)cyclobutyl)methyl)-5-o-tolyl-1,3,4-thiadiazol-2-amine]		Mean AC1.4 (Table 3): B (B=1-10 uM)
NC(=O)c1ccc(F)c(-c2nsc(NC3(c4ncccc4F)CCC3)n2)c1 [4-fluoro-3-(5-{[(3-fluoro(2-pyridyl))cyclobutyl]amino}(1,2,4-thiadiazol-3-yl))benzamide]	D (D=>20 uM)	
CC(C)(CNc1nc2c(C#N)cc(C(N)=O)cc2s1)c1ccc(F)cc1 [4-cyano-2-(2-(1-fluorophenyl)-2-methylpropylamino)benzo[d] thiazole-6-carboxamide]		Mean AC1.4 (Table 4): A (A=<1 uM)
CC(C)(CNc1nc2ccc(C(=O)O)cc2s1)c1ccc(F)cc1 [2-(2-(4-fluorophenyl)-2-methylpropylamino)benzo-6-carboxylic acid]		Mean AC1.4 (Table 4): C (C=10-20 uM)
Cn1nc(NC2(c3ncccc3F)CCC2)nc1-c1cc(C#N)ccc1F [4-fluoro-3-(5-(1-(3-fluoropyridin-2-yl)cyclobutylamino)-2-methyl-2H-1,2,4-triazol-3-yl)benzonitrile]		Mean AC1.4 (Table 5): D (D=>20 uM)
CN1CCC(CNc2nc(-c3cccc(C(N)=O)c3)ns2)(c2ccc(F)cc2)CC1 [3-[5-({[4-(4-fluorophenyl)-1-methyl-4-piperidyl]methyl}amino)-1,2,4-thiadiazol-3-yl]benzamide]	D (D=>20 uM)	
CC(C)(CNc1nc(Cc2cccc(O)c2)ns1)c1ccc(F)cc1 [3-[(5-{[2-(4-fluorophenyl)-2-methylpropyl]amino}-1,2,4-thiadiazol-3-yl)methyl]phenol]	A (A=<1 uM)	
NC(=O)c1ccc(Cl)c2nc(NC[C@]3(c4ncccc4F)C[C@H](F)C3)sc12 [4-chloro-2-((3-fluoro-1-(3-fluoropyridin-2-yl)cyclobutyl)methylamino)benzo[d] thiazole-7-carboxamide]		Mean AC1.4 (Table 4): B (B=1-10 uM)
